Results as given in publication PMC9701195, “Structural basis for lipid and copper regulation of the ABC transporter MsbA” (Nature Communications, 2022).
Like-named read-outs stand apart in the source and are kept apart here. Blank lines part the entries; values can stand above or below the molecule they belong to.

Legend:
MsbA [1] = target: T1, MsbA (Escherichia coli, UniProt P60752); test: biochemical; design: native mass spectrometry lipid titration of ADP-trapped open outward-facing MsbA, sequential lipid binding model; details: first lipid; MsbA trapped with ADP and VO4, open outward-facing; read-out: KD1
T1 construct: full length, TEV-cleavable N-terminal His6 tag cut (intact native N-terminus MHND...), expressed in E. coli BL21-AI, delipidated, homodimer in C10E5
Description: Lipids were prepared as previously described, in which lipids dissolved in chloroform were dried under nitrogen flow placed under vacuum overnight followed by dissolving in water. The concentration of MsbA was determined using a DC protein assay (BioRad) with bovine serum albumin as the standard. MsbA was incubated with lipids at varying concentrations and mixed with 200 mM ammonium acetate supplemented with 2x CMC lauryldimethylamine oxide (LDAO) at 1:1 volume ratio. Samples were incubated in the nano electrospray ionization source chamber for a minute to reach equilibrium prior to data acquisition. These samples analyzed on Orbitrap Exactive Plus EMR mass spectrometer (Thermo Scientific) operating at identical settings as described above. The mass spectra for each titration event were obtained in triplicate. The mass spectra were deconvoluted using UniDec[55] and the resulting peak intensities for apo and lipid-bound protein were determined. The relative abundance for each species was determined by dividing the peak intensity by the total intensity to convert to mole fraction for each independent experiment. For MsbA (P) binding the N^th lipid (Ln), we applied the following sequential lipid binding model: PLn−1+L⇔KAPLn where: KAn=PLn/[PLn−1]L To determine the impact of MsbA conformation on lipid binding affinity, analogous experiments were performed using MsbA trapped in an open, OF conformation with adenosine diphosphate (ADP) and [compound left out] (VO4). […] For example, in the presence of 0.4 μM of KDL, [compound left out]-trapped MsbA binds up to two lipids whereas the non-trapped protein binds only one KDL (Fig. 3b–c). […] The binding of POPC and POPE are reminiscent of that for MsbA partially loaded with copper(II). […] For MsbA with reduced copper(II) binding, additional 1 mM MgCl2 was added to all buffer and MsbA solution in the purification step using Ni-NTA beads. Copper(II) saturated MsbA was obtained by adding 20 uM copper (II) acetate then buffer exchanged using Bio-Spin column to remove excess copper(II). MsbA trapped by [compound left out] was obtained by adding ATP and MgCl2 to MsbA to reach the final concentration of 10 mM for both then incubating at room temperature for 10 min. After incubation, [compound left out] (pH 10) was added to reach final concentration of […] followed by incubation at 37 °C for 10 min. MsbA samples was buffer exchanged using Bio-Spin column to 200 mM ammonium acetate supplemented with 2x CMC C10E5 for native MS studies. To prepare MsbA samples for Cryo-EM studies, MsbA and trapped MsbA were preloaded with copper(II) then purified by Superdex 200 Increase 10/300 GL size exclusion column equilibrated with 200 mM NaCl, 20 mM HEPES and 2x CMC C10E5 without glycerol. […]

MsbA [2] = target: T1, MsbA; test: biochemical; design: native mass spectrometry lipid titration, sequential lipid binding model, mole fractions of apo and lipid-bound MsbA; details: first lipid; MsbA partially loaded with copper(II); read-out: KD1
Description: Lipids were prepared as previously described, in which lipids dissolved in chloroform were dried under nitrogen flow placed under vacuum overnight followed by dissolving in water. The concentration of MsbA was determined using a DC protein assay (BioRad) with bovine serum albumin as the standard. MsbA was incubated with lipids at varying concentrations and mixed with 200 mM ammonium acetate supplemented with 2x CMC lauryldimethylamine oxide (LDAO) at 1:1 volume ratio. Samples were incubated in the nano electrospray ionization source chamber for a minute to reach equilibrium prior to data acquisition. These samples analyzed on Orbitrap Exactive Plus EMR mass spectrometer (Thermo Scientific) operating at identical settings as described above. The mass spectra for each titration event were obtained in triplicate. The mass spectra were deconvoluted using UniDec[55] and the resulting peak intensities for apo and lipid-bound protein were determined. The relative abundance for each species was determined by dividing the peak intensity by the total intensity to convert to mole fraction for each independent experiment. For MsbA (P) binding the N^th lipid (Ln), we applied the following sequential lipid binding model: PLn−1+L⇔KAPLn where: KAn=PLn/[PLn−1]L To better understand MsbA-lipid interactions, we determined equilibrium binding constants for MsbA binding to different lipids. For these studies, we selected 1,1′,2,2′-tetraoleoyl-cardiolipin (TOCDL, 72:4) or phosphatidic acid (PA), phosphatidylcholine (PC), phosphatidylethanolamine (PE), phosphatidylglycerol (PG), and phosphatidylserine (PS) containing the acyl chain composition, 1-palmitoyl-2-oleoyl (PO, 16:0-18:1). We also included 3-deoxy-D-manno-oct-2-ulosonic acid (Kdo)2-lipid A (KDL), an LPS precursor known to stimulate MsbA ATPase activity[22]–[24]. Except for PC, these lipids are found in E. coli[40]. MsbA partially and fully loaded with copper(II) was titrated with each lipid followed by recording their native mass spectra (Supplementary Figs. 3–6). The mole fractions of apo and lipid bound states of MsbA were extracted from the deconvoluted MS data and used to determine the equilibrium dissociation constant (KDN) for the Nth binding event (Supplementary Tables 4–5). […] The two tightest binding lipids for MsbA loaded with copper(II) were TOCDL (KD1 = 1.6 µM) and KDL (KD1 = 0.6 µM). POPG binding affinities were largely independent of the copper(II) bound state of MsbA. […] For MsbA with reduced copper(II) binding, additional 1 mM MgCl2 was added to all buffer and MsbA solution in the purification step using Ni-NTA beads. Copper(II) saturated MsbA was obtained by adding 20 uM copper (II) acetate then buffer exchanged using Bio-Spin column to remove excess copper(II). […]

MsbA [3] = target: T1, MsbA; test: cryoEM structure […] Å and native MS; format: binding; details: outward-facing, with KDL and copper(II), NBD site
[4] = target: the molecule itself; test: native MS; MsbA in 200 mM ammonium acetate with 2x CMC C10E5; Orbitrap Exactive Plus EMR; partially or fully copper(II)-loaded, also trapped with ADP and vanadate

T1 sequence (P60752 whole entry): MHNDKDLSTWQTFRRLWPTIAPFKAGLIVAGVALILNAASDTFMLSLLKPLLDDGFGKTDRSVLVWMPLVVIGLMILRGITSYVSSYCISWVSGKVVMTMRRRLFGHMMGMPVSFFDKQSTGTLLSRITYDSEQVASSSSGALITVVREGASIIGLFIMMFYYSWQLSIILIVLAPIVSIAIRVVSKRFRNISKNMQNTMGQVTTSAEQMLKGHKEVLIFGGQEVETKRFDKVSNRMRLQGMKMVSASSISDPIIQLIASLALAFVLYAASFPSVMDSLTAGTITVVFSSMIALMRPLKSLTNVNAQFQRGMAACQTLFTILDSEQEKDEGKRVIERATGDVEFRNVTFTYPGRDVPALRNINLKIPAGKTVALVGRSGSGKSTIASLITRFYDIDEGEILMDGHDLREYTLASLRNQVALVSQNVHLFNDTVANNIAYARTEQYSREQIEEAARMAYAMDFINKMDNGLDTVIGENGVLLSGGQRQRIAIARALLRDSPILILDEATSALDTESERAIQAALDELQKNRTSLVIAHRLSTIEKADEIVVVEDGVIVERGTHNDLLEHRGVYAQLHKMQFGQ

Molecule: Nc1ncnc2c1ncn2[C@@H]1O[C@H](COP(=O)(O)OP(=O)(O)O)[C@@H](O)[C@H]1O [ADP]
cryoEM structure 3.6 Å and native MS (MsbA [3]; vanadate-trapped): there is clear density for ADP·VO4 in the NBDs

Molecule: CCCCCCCC/C=C\CCCCCCCC(=O)O[C@H](COC(=O)CCCCCCCCCCCCCCC)COP(=O)(O)OCC(O)CO (some centres unmarked) [POPG]
Kd (MsbA [1]): 2.6 ± 0.1 µM
Kd (MsbA [2]): 4.9 ± 0.4 µM

Molecule: CCCCCCCC/C=C\CCCCCCCC(=O)O[C@H](COC(=O)CCCCCCCCCCCCCCC)COP(=O)(O)OC[C@H](N)C(=O)O [POPS]
Kd (MsbA [1]): 2.3 ± 0.3 µM

Molecule: [O]=[V]([OH])([OH])[OH] [vanadate]
cryoEM structure 3.6 Å and native MS (MsbA [3]; ADP-vanadate-trapped): there is clear density for ADP·VO4 in the NBDs

B1: MsbA (ATP-binding cassette transporter MsbA, Escherichia coli) (natural protein)
chain: HNDKDLSTWQTFRRLWPTIAPFKAGLIVAGVALILNAASDTFMLSLLKPLLDDGFGKTDRSVLVWMPLVVIGLMILRGITSYVSSYCISWVSGKVVMTMRRRLFGHMMGMPVSFFDKQSTGTLLSRITYDSEQVASSSSGALITVVREGASIIGLFIMMFYYSWQLSIILIVLAPIVSIAIRVVSKRFRNISKNMQNTMGQVTTSAEQMLKGHKEVLIFGGQEVETKRFDKVSNRMRLQGMKMVSASSISDPIIQLIASLALAFVLYAASFPSVMDSLTAGTITVVFSSMIALMRPLKSLTNVNAQFQRGMAACQTLFTILDSEQEKDEGKRVIERATGDVEFRNVTFTYPGRDVPALRNINLKIPAGKTVALVGRSGSGKSTIASLITRFYDIDEGEILMDGHDLREYTLASLRNQVALVSQNVHLFNDTVANNIAYARTEQYSREQIEEAARMAYAMDFINKMDNGLDTVIGENGVLLSGGQRQRIAIARALLRDSPILILDEATSALDTESERAIQAALDELQKNRTSLVIAHRLSTIEKADEIVVVEDGVIVERGTHNDLLEHRGVYAQLHKMQFGQ
notes: MsbA, Escherichia coli, UniProt P60752; msbA gene amplified from E. coli genomic DNA into pCDF-1b (pCDF-MsbA), N-terminal TEV-cleavable His6; Homodimer; co-purifies with copper(II), one site per subunit at the N-terminus (Met-His-Asn-Asp); For cryo-EM it was loaded with copper(II), apo or trapped with ADP-vanadate, with KDL; also called wild-type MsbA; the transporter; source: E. coli (DE3) …
stoichiometry N [4]: 2

Results, then the molecule that gave them:

Kd (MsbA [1]): 2.2 ± 0.01 µM
Kd (MsbA [2]): 14.7 ± 1.5 µM
Molecule: CCCCCCCC/C=C\CCCCCCCC(=O)O[C@H](COC(=O)CCCCCCCCCCCCCCC)COP(=O)(O)O [POPA]

Kd (MsbA [2]): 12.4 ± 0.7 µM
Molecule: CCCCCCCC/C=C\CCCCCCCC(=O)O[C@H](COC(=O)CCCCCCCCCCCCCCC)COP(=O)(O)OCCN [POPE]

Kd (MsbA [1]): 15.1 ± 0.5 µM
Kd (MsbA [2]): 20.4 ± 1.4 µM
Molecule: CCCCCCCC/C=C\CCCCCCCC(=O)O[C@H](COC(=O)CCCCCCCCCCCCCCC)COP(=O)([O-])OCC[N+](C)(C)C [POPC]
